{"source": "patent US6498125B2", "about": "“Pyridine ketones useful as herbicides” (Syngenta Participations AG, priority 1998, dated 2002)", "key": {"[1]": {"system": "Monocotyledonous and dicotyledonous test plants", "assay": "Example B1: pre-emergence herbicidal action, 2 kg of AS/ha", "assay_type": "in vivo", "details": "3 weeks, scale 1-9; for pre-emergence action rating, Avena: test plant Avena; for pre-emergence action rating, Cyperus: test plant Cyperus; for pre-emergence action rating, Setaria: test plant Setaria; for pre-emergence action rating, Sinapis: test plant Sinapis; for pre-emergence action rating, Solanum: test plant Solanum; for pre-emergence action rating, Stellaria: test plant Stellaria", "protocol": "Monocotyledonous and dicotyledonous test plants are sown in standard soil in plastic pots. Immediately after sowing, the test substances are sprayed on (500 l of water/ha) as an aqueous suspension (prepared from a 25% wettable powder (Example F3, b) according to WO 97/34485) or emulsion (prepared from a 25% emulsion concentrate (Example F1, c)), corresponding to a dosage of 2 kg of AS/ha. The test plants are then grown under optimum conditions in a greenhouse. After a test period of 3 weeks, the test is evaluated with a nine-level scale of ratings (1=complete damage, 9=no effect). Ratings of 1 to 4 (in particular 1 to 3) mean good to very good herbicidal action."}, "[2]": {"system": "Monocotyledonous and dicotyledonous test plants", "assay": "Example B2: post-emergence herbicidal action, 2 kg of AS/ha", "assay_type": "in vivo", "design": "key: 1 = complete damage, 9 = no effect", "details": "4- to 6-leaf stage, about 18 days, scale 1-9; for post-emergence action rating, Avena: test plant Avena; for post-emergence action rating, Setaria: test plant Setaria; for post-emergence action rating, Sinapis: test plant Sinapis; for post-emergence action rating, Solanum: test plant Solanum; for post-emergence action rating, Stellaria: test plant Stellaria", "protocol": "Monocotyledonous and dicotyledonous test plants are grown in plastic pots with standard soil in a greenhouse and, in the 4- to 6-leaf stage, are sprayed with an aqueous suspension of the test substances of the formula 1, prepared from a 25% wettable powder (Example F3, b) according to WO 97134485) or with an emulsion of the test substances of the formula I, prepared from a 25% emulsion concentrate (Example F1, c) according to WO 97/34485), corresponding to a dosage of 2 kg of AS/ha (500 l of water/ha). The test plants are then grown further under optimum conditions in a greenhouse. After a test period of about 18 days, the test is evaluated with a nine-level scale of rating (1=complete damage, 9=no effect). Ratings of 1 to 4 (in particular 1 to 3) mean good to very good herbicidal action. In this test, the compounds of the formula I show strong herbicidal action."}}}
{"smiles": "O=C(C1=C(O)C2CCC(C2)C1=O)c1ncc(C(F)(F)F)cc1Cl", "note": "(centres unmarked) [Compound 2.044]", "values": [{"measurement": "melting point", "result": "105 to 106", "unit": "°C"}]}
{"smiles": "Cc1nc(C(F)(F)F)ccc1C(=O)C1=C(O)CC(NC(=O)NC(C)(C)C)CC1=O", "note": "(centres unmarked) [Compound 6.111]", "values": [{"measurement": "melting point", "result": "163 to 164", "unit": "°C"}]}
{"smiles": "Cc1nc(C(F)(F)F)ccc1C(=O)C1=C(Sc2ccc(Cl)cc2)C2CCC(C2)C1=O", "note": "(centres unmarked) [Compound 1.412, 4-(4-chlorophenylsulfanyl)-3-(2-methyl-6-trifluoromethylpyridine-3-carbonyl)bicyclo[3.2.1]oct-3-en-2-one]", "values": [{"measurement": "melting point", "result": "130 to 131", "unit": "°C"}]}
{"smiles": "COc1nc(C(=O)C2=C(O)C3CCC(C3)C2=O)ccc1C(F)(F)F", "note": "(centres unmarked) [Compound 2.038]", "values": [{"measurement": "melting point", "result": "111 to 113", "unit": "°C"}]}
{"smiles": "Cc1nc(C(F)(F)F)ccc1C(=O)C1=C(S(=O)(=O)c2ccc(Cl)cc2)C2CCC(C2)C1=O", "note": "(centres unmarked) [Compound 1.414, 4-(4-chlorobenzenesulfonyl)-3-(2-methyl-6-trifluoromethylpyridine-3-carbonyl)bicyclo[3.2.1]oct-3-en-2-one]", "values": [{"measurement": "melting point", "result": "166 to 167", "unit": "°C"}]}
{"smiles": "O=C(C1=C(O)C2CCC(C2)C1=O)c1ccnc(C(F)(F)F)c1", "note": "(centres unmarked) [Compound 3.001]", "values": [{"measurement": "melting point", "result": "95 to 97", "unit": "°C"}]}
{"smiles": "C=CC(=O)OC1=C(C(=O)c2ccc(C(F)(F)F)nc2C)C(=O)C2CCC1C2", "note": "(centres unmarked) [Compound 1.405]", "values": [{"measurement": "pre-emergence action rating, Avena", "setting": "[1]", "result": 2}, {"measurement": "pre-emergence action rating, Cyperus", "setting": "[1]", "result": 1}, {"measurement": "pre-emergence action rating, Setaria", "setting": "[1]", "result": 1}, {"measurement": "pre-emergence action rating, Sinapis", "setting": "[1]", "result": 1}, {"measurement": "pre-emergence action rating, Solanum", "setting": "[1]", "result": 1}, {"measurement": "pre-emergence action rating, Stellaria", "setting": "[1]", "result": 2}, {"measurement": "post-emergence action rating, Avena", "setting": "[2]", "result": 2}, {"measurement": "post-emergence action rating, Setaria", "setting": "[2]", "result": 2}, {"measurement": "post-emergence action rating, Sinapis", "setting": "[2]", "result": 1}, {"measurement": "post-emergence action rating, Solanum", "setting": "[2]", "result": 2}, {"measurement": "post-emergence action rating, Stellaria", "setting": "[2]", "result": 2}]}
{"smiles": "CCC(=O)OC1=C(C(=O)c2ccc(C(F)(F)F)nc2C)C(=O)C2CCC1C2", "note": "(centres unmarked) [Compound 1.404]", "values": [{"measurement": "pre-emergence action rating, Avena", "setting": "[1]", "result": 2}, {"measurement": "pre-emergence action rating, Cyperus", "setting": "[1]", "result": 1}, {"measurement": "pre-emergence action rating, Setaria", "setting": "[1]", "result": 1}, {"measurement": "pre-emergence action rating, Sinapis", "setting": "[1]", "result": 2}, {"measurement": "pre-emergence action rating, Solanum", "setting": "[1]", "result": 1}, {"measurement": "pre-emergence action rating, Stellaria", "setting": "[1]", "result": 2}, {"measurement": "post-emergence action rating, Avena", "setting": "[2]", "result": 2}, {"measurement": "post-emergence action rating, Setaria", "setting": "[2]", "result": 2}, {"measurement": "post-emergence action rating, Sinapis", "setting": "[2]", "result": 1}, {"measurement": "post-emergence action rating, Solanum", "setting": "[2]", "result": 1}, {"measurement": "post-emergence action rating, Stellaria", "setting": "[2]", "result": 2}]}
{"smiles": "Cc1nc(C(F)(F)F)ccc1C(=O)C1=C(OC(=O)C(C)(C)C)C2CCC(C2)C1=O", "note": "(centres unmarked) [Compound 1.4]", "values": [{"measurement": "pre-emergence action rating, Avena", "setting": "[1]", "result": 2}, {"measurement": "pre-emergence action rating, Cyperus", "setting": "[1]", "result": 1}, {"measurement": "pre-emergence action rating, Setaria", "setting": "[1]", "result": 1}, {"measurement": "pre-emergence action rating, Sinapis", "setting": "[1]", "result": 2}, {"measurement": "pre-emergence action rating, Solanum", "setting": "[1]", "result": 1}, {"measurement": "pre-emergence action rating, Stellaria", "setting": "[1]", "result": 2}, {"measurement": "post-emergence action rating, Avena", "setting": "[2]", "result": 2}, {"measurement": "post-emergence action rating, Setaria", "setting": "[2]", "result": 2}, {"measurement": "post-emergence action rating, Sinapis", "setting": "[2]", "result": 1}, {"measurement": "post-emergence action rating, Solanum", "setting": "[2]", "result": 2}, {"measurement": "post-emergence action rating, Stellaria", "setting": "[2]", "result": 2}]}
{"smiles": "Cc1nc(C(F)(F)F)ccc1C(=O)C1=C(Cl)C2CCC(C2)C1=O", "note": "(centres unmarked) [Compound 1.398, 4-chloro-3-(2-methyl-6-trifluoromethyl-pyridine-3-carbonyl)bicyclo[3.2.1]oct-3-en-2-one]", "values": [{"measurement": "pre-emergence action rating, Avena", "setting": "[1]", "result": 2}, {"measurement": "pre-emergence action rating, Cyperus", "setting": "[1]", "result": 1}, {"measurement": "pre-emergence action rating, Setaria", "setting": "[1]", "result": 1}, {"measurement": "pre-emergence action rating, Sinapis", "setting": "[1]", "result": 1}, {"measurement": "pre-emergence action rating, Solanum", "setting": "[1]", "result": 1}, {"measurement": "pre-emergence action rating, Stellaria", "setting": "[1]", "result": 1}, {"measurement": "post-emergence action rating, Avena", "setting": "[2]", "result": 2}, {"measurement": "post-emergence action rating, Setaria", "setting": "[2]", "result": 2}, {"measurement": "post-emergence action rating, Sinapis", "setting": "[2]", "result": 1}, {"measurement": "post-emergence action rating, Solanum", "setting": "[2]", "result": 2}, {"measurement": "post-emergence action rating, Stellaria", "setting": "[2]", "result": 2}, {"measurement": "melting point", "result": "137 to 138", "unit": "°C"}]}
{"smiles": "Cc1nc(C(F)(F)F)ccc1C(=O)C1=C(O)CC(NC(=O)C(C)C)CC1=O", "note": "(centres unmarked) [Compound 6.041]", "values": [{"measurement": "melting point", "result": "186 to 187", "unit": "°C"}]}
{"smiles": "CSc1nc(C(=O)C2=C(O)C3CCC(C3)C2=O)ccc1C(F)(F)F", "note": "(centres unmarked) [Compound 2.03]", "values": [{"measurement": "melting point", "result": "107 to 110", "unit": "°C"}]}
